Reference: patent publication US20240308991A1, “PROCESS FOR THE SYNTHESIS OF REACTIVE CAR[…] ANTIGEN […] C[…] A CARRIER MATERIAL” (KORANEX CAPITAL, priority 2021, published 2024)

## C=CCO[C@H]1O[C@H](CO)[C@H](O)[C@H](O[C@@H]2O[C@H](CO)[C@H](O)[C@H](O)[C@H]2O)[C@H]1NC(C)=O
  melting point: 230 to 232 °C
